“And” between values parts separate entries of the source, which are not always exact repeats. Equal values may be shown once. Read-outs that look alike come from different tables or passages of the source.
Columns and labels:
SARS-CoV2 = experiment: microbe, parasite or virus in culture; type: cell-based, SARS-CoV-2; conditions: for inhibition at 0.075 µM: Severe acute respiratory syndrome coronavirus 2, Vero C1008, 0.075 μM; for inhibition at 0.15 µM: Severe acute respiratory syndrome coronavirus 2, Vero C1008, 0.15 μM; for inhibition at 0.3 µM: Severe acute respiratory syndrome coronavirus 2, Vero C1008, 0.3 μM; for inhibition at 0.6 µM: Severe acute respiratory syndrome coronavirus 2, Vero C1008, 0.6 μM
MERS-CoV Jordan virus = type: cell-based; conditions: at a concentration of 0.1 μM, FIG. 1
SARS-CoV-2 [1] = experiment: SARS-CoV-2 infection of VeroE6 cells, 48 hours, MOI 0.012; type: cell-based
SARS-CoV-2 [2] = experiment: SARS-CoV-2 infection of Calu3 human lung cells, 72 hours, MOI 2; type: cell-based; conditions: Severe acute respiratory syndrome coronavirus 2, Calu-3, read-out: Efficacy IC90
[3] = cited from earlier work
[4] = African green monkeys, 1.6 mg/kg × 14 days, total dose 22.4; cited from earlier work
[5] = Mice, cited from earlier work
[6] = Dogs, cited from earlier work
[7] = Rats, cited from earlier work
[8] = cited from earlier work; remark: listed apart in the source
[9] = 0.15 μM, title MOI 0.6 (text MOI 1.3), Plate 1
[10] = 0.3 μM, title MOI 0.6 (text MOI 1.3), Plate 1
[11] = title MOI 0.6 (text MOI 1.3), Plate 1
[12] = title MOI 0.6 (text MOI 1.3), Plate 2

NC(=O)c1cn([C@@H]2O[C@H](CO)[C@@H](O)[C@H]2O)c2ncnc(N)c12 [Oya1, 4-amino-7-((2R,3R,4S,5R)-3,4-dihydroxy-5-(hydroxymethyl)tetrahydrofuran-2-yl)-7H-pyrrolo[2,3-d]pyrimidine-5-carboxamide]
fold increase in activity over chlorpromazine HCl (SARS-CoV2): 1000 fold
Inhibition (SARS-CoV2; 0.0047 μM, MOI 0.6, Plate 2): 1.733% and −3.975% and 4.262%
Inhibition (SARS-CoV2; 0.0047 μM, title MOI 0.6 (text MOI 1.3), Plate 2): −0.7543% and −8.894% and 0.3653%
Inhibition (SARS-CoV2; 0.0094 μM, MOI 0.2, Plate 1): 24.36% and 12.99%
Inhibition (SARS-CoV2; 0.0094 μM, MOI 0.4, Plate 1): 9.365% and 6.857% and 1.875%
Inhibition (SARS-CoV2; 0.0094 μM, title MOI 0.6 (text MOI 1.3), Plate 2): 5.994% and 7.809% and 12.95%
Inhibition (SARS-CoV2; 0.0188 μM, title MOI 0.6 (text MOI 1.3), Plate 1): 4.894% and 1.871% and −1.054%
fold better IC50 than GS-441524 (SARS-CoV2; 0.03 μM vs 1.4 μM): 47 fold
Inhibition (SARS-CoV2; 0.0375 μM, MOI 0.2, Plate 2): 31.89% and 46.61%
Inhibition (SARS-CoV2; 0.0375 μM, MOI 0.4, Plate 1): 12.31% and 18.82%
Inhibition (SARS-CoV2; 0.0375 μM, MOI 0.6, Plate 1): 27.4624% and 39.74% and 52.32%
Inhibition (SARS-CoV2; 0.0375 μM, MOI 0.6, Plate 2): 59.38% and 43.5% and 83.02%
Inhibition (SARS-CoV2; 0.075 μM, MOI 0.2, Plate 1): 81.55% and 79.85%
Inhibition (SARS-CoV2; 0.075 μM, MOI 0.2, Plate 2): 88.5915% and 83.72% and 67.19%
Inhibition (SARS-CoV2; 0.075 μM, MOI 0.4, Plate 1): 50.83% and 69.6% and 36.13%
Inhibition (SARS-CoV2; 0.075 μM, MOI 0.4, Plate 2): 24.91% and 28.1512%
Inhibition (SARS-CoV2; 0.075 μM, MOI 0.6, Plate 1): 98.66% and 98.3%
Inhibition (SARS-CoV2; 0.075 μM, MOI 0.6, Plate 2): 97.59%
Inhibition (SARS-CoV2; 0.075 μM, title MOI 0.6 (text MOI 1.3), Plate 1): 100.0792% and 80.42%
Inhibition (SARS-CoV2; 0.075 μM, title MOI 0.6 (text MOI 1.3), Plate 2): 99.3891% and 97.8301%
Inhibition (SARS-CoV2; 0.15 μM, MOI 0.2, Plate 1): 99.12% and 95.59%
Inhibition (SARS-CoV2; 0.15 μM, MOI 0.2, Plate 2): 99.22%
Inhibition (SARS-CoV2; 0.15 μM, MOI 0.4, Plate 1): 98.7% and 94.16%
Inhibition (SARS-CoV2; 0.15 μM, MOI 0.4, Plate 2): 86.8%
Inhibition (SARS-CoV2; 0.15 μM, MOI 0.6, Plate 1): 99.78% and 99.74%
Inhibition (SARS-CoV2; [9]): 100.3795%
Inhibition (SARS-CoV2; 0.3 μM, MOI 0.2, Plate 1): 99.69%
Inhibition (SARS-CoV2; 0.3 μM, MOI 0.2, Plate 2): 99.99%
Inhibition (SARS-CoV2; 0.3 μM, MOI 0.4, Plate 1): 99.72%
Inhibition (SARS-CoV2; 0.3 μM, MOI 0.6, Plate 1): 85.36%
Inhibition (SARS-CoV2; [10]): 97.59%
Inhibition (SARS-CoV2; 0.6 μM, MOI 0.2, Plate 1): 99.15%
Inhibition (SARS-CoV2; 0.6 μM, MOI 0.6, Plate 2): 96.04%
fold greater efficacy (IC50) than remdesivir (SARS-CoV2; Oya1 0.03 μM vs remdesivir 0.77 μM (Wang et al.)): 25 fold
IC50 (SARS-CoV2; Severe acute respiratory syndrome coronavirus 2, Vero C1008): 30 nM
inhibition at 0.0047 µM (SARS-CoV2; Severe acute respiratory syndrome coronavirus 2, Vero C1008, 0.0047 μM, MOI 0.4, Plate 2): 8.02%
inhibition at 0.0094 µM (SARS-CoV2; Severe acute respiratory syndrome coronavirus 2, Vero C1008, 0.0094 μM, MOI 0.4, Plate 2): 15.2%
inhibition at 0.0188 µM (SARS-CoV2; Severe acute respiratory syndrome coronavirus 2, Vero C1008, 0.0188 μM, MOI 0.4, Plate 2): 15.6%
inhibition at 0.0375 µM (SARS-CoV2; Severe acute respiratory syndrome coronavirus 2, Vero C1008, 0.0375 μM, MOI 0.4, Plate 1): 10.9%
inhibition at 0.075 µM (SARS-CoV2; MOI 0.2, Plate 1): 67.8%
inhibition at 0.075 µM (SARS-CoV2; MOI 0.4, Plate 2): 19.8%
inhibition at 0.15 µM (SARS-CoV2; MOI 0.2, Plate 1): 97.2%
inhibition at 0.15 µM (SARS-CoV2; MOI 0.2, Plate 2): 96%
inhibition at 0.15 µM (SARS-CoV2; MOI 0.4, Plate 1): 95.9%
inhibition at 0.15 µM (SARS-CoV2; MOI 0.4, Plate 2): 83.4%
inhibition at 0.15 µM (SARS-CoV2; MOI 0.6, Plate 1): 98.6%
inhibition at 0.15 µM (SARS-CoV2; MOI 0.6, Plate 2): 99.7%
inhibition at 0.15 µM (SARS-CoV2; [11]): 101%
inhibition at 0.15 µM (SARS-CoV2; [12]): 101%
inhibition at 0.3 µM (SARS-CoV2; MOI 0.2, Plate 1): 99.9%
inhibition at 0.3 µM (SARS-CoV2; MOI 0.2, Plate 2): 100%
inhibition at 0.3 µM (SARS-CoV2; MOI 0.4, Plate 1): 96.9%
inhibition at 0.3 µM (SARS-CoV2; MOI 0.4, Plate 2): 91.4%
inhibition at 0.3 µM (SARS-CoV2; MOI 0.6, Plate 1): 100%
inhibition at 0.3 µM (SARS-CoV2; MOI 0.6, Plate 2): 100%
inhibition at 0.3 µM (SARS-CoV2; [11]): 100%
inhibition at 0.3 µM (SARS-CoV2; [12]): 101%
inhibition at 0.6 µM (SARS-CoV2; MOI 0.2, Plate 1): 100%
inhibition at 0.6 µM (SARS-CoV2; MOI 0.2, Plate 2): 99.7%
inhibition at 0.6 µM (SARS-CoV2; MOI 0.4, Plate 1): 100%
inhibition at 0.6 µM (SARS-CoV2; MOI 0.4, Plate 2): 67.4%
inhibition at 0.6 µM (SARS-CoV2; MOI 0.6, Plate 1): 100%
inhibition at 0.6 µM (SARS-CoV2; MOI 0.6, Plate 2): 99.7%
inhibition at 0.6 µM (SARS-CoV2; [11]): 101%
inhibition at 0.6 µM (SARS-CoV2; [12]): 101%
inhibition of the MERS-CoV RNA polymerase (MERS-CoV Jordan virus): approximately 100%
IC90 (SARS-CoV-2 [1]; Severe acute respiratory syndrome coronavirus 2, Vero C1008, VeroE6, read-out: Efficacy IC90): 55 nM and 0.017 µg/mL
fold more effective against SARS-CoV-2 than Remdesivir (SARS-CoV-2 [1]; cells with highest infection rate (FIGS. 17A-17B: VeroE6, Calu3)): > 47 fold
IC90 (SARS-CoV-2 [2]): 180 nM and 0.056 µg/mL
Cytotoxicity (Vero E6 cells; 0.0047 μM, MOI 0.6, Plate 1): −3.314% and −2.167% and −3.385%
Cytotoxicity (Vero E6 cells; 0.0047 μM, MOI 0.6, Plate 2): −3.314% and −2.167% and −3.385%
Cytotoxicity (Vero E6 cells; 0.0094 μM, MOI 0.6, Plate 1): −0.2353% and −1.9307% and −0.5813%
Cytotoxicity (Vero E6 cells; 0.0094 μM, MOI 0.6, Plate 2): −0.2353% and −1.9307% and −0.5813%
Cytotoxicity (Vero E6 cells; 0.0188 μM, MOI 0.6, Plate 1): −0.5761% and 5.048% and 2.474%
Cytotoxicity (Vero E6 cells; 0.0188 μM, MOI 0.6, Plate 2): −0.5761% and 5.048% and 2.474%
Cytotoxicity (Vero E6 cells; 0.0375 μM, MOI 0.6, Plate 1): 14.23% and 14.79% and 16.69%
Cytotoxicity (Vero E6 cells; 0.0375 μM, MOI 0.6, Plate 2): 14.23% and 14.79% and 16.69%
Cytotoxicity (Vero E6 cells; 0.075 μM, MOI 0.6, Plate 1): 29.56% and 33.64% and 33.6%
Cytotoxicity (Vero E6 cells; 0.075 μM, MOI 0.6, Plate 2): 29.56% and 33.64% and 33.6%
Cytotoxicity (Vero E6 cells; 0.15 μM, MOI 0.6, Plate 1): 49.52% and 51.36% and 51.37%
Cytotoxicity (Vero E6 cells; 0.15 μM, MOI 0.6, Plate 2): 49.52% and 51.36% and 51.37%
Cytotoxicity (Vero E6 cells; [9]): 49.52% and 51.36% and 51.37%
Cytotoxicity (Vero E6 cells; 0.3 μM, MOI 0.6, Plate 1): 66.57% and 64.56% and 64.1314%
Cytotoxicity (Vero E6 cells; 0.3 μM, MOI 0.6, Plate 2): 66.57% and 64.56% and 64.1314%
Cytotoxicity (Vero E6 cells; [10]): 66.57%
Cytotoxicity (Vero E6 cells; 0.6 μM, MOI 0.6, Plate 1): 79.78% and 76.76% and 75.88%
Cytotoxicity (Vero E6 cells; 0.6 μM, MOI 0.6, Plate 2): 79.78% and 76.76% and 75.88%
toxicity margin or selectivity index, high (Vero E6 cells; 8 tests against SARS-CoV-2): 8.2
toxicity margin or selectivity index, low (Vero E6 cells; 8 tests against SARS-CoV-2): 3.1
average toxicity margin or selectivity index (Vero E6 cells; 8 tests against SARS-CoV-2, average): 4.8
anti-cancer activity ([3]; Phase I clinical trials, humans): inactive against cancer
tolerability in humans ([3]; Phase I clinical trials): well tolerated
Reported Safe Clinical Dosing ([3]; daily dosing × 41): 0.12 mg/kg/day × 41
MTD (not reached at highest single dose tested) ([3]; humans, Cavins 1967): > 0.3 mg/kg
Observed toxic effect ([3]; humans, daily, highest dosing regimen 120 μg/kg/day × 41 days): 0
Observed toxic effect ([3]; humans, thrice weekly, highest dosing regimen 50-250 μg/kg/day × 45 days): 0
Observed toxic effect ([3]; humans, weekly, highest dosing regimen 200 μg/kg/day × 150 days): 0
Effect [4]: lethal
LD50, multi dose ([5]; × 9 days): 0.5 × 9 days mg/kg
LD50, single dose [5]: 4 mg/kg
LD50, total dose (multi dose) [5]: 4.5 mg/kg
LD50, multi dose ([6]; × 14 days): 0.3 × 14 days mg/kg
LD50, single dose [6]: 2.5 mg/kg
LD50, total dose (multi dose) [6]: 4.2 mg/kg
LD50, multi dose ([7]; × 24 days): 0.05 × 24 days mg/kg
LD50, single dose [7]: 1.2 mg/kg
LD50, total dose (multi dose) [7]: 1.2 mg/kg
half-life in blood ([8]; Mice): 50 h
cleared ([8]; mice, following 12 days post injection): 40%

From patent US11779585B2 (priority 2020, dated 2023)
